Data set [1] in a line: Stability in high humidity environment (moisture absorption weight gain). Format: physicochemical. The settings on record: 25° C., RH90%±5%. As to the method:
A moisture absorption gain ratio was calculated.

For data set [2] the following is noted: pH 7.5.
The nature of data set [3]: Photo- and thermal stability in the solvent, HPLC.
The test system of data set [4] is primary human corneal epithelial cells. The experiment in a line: Hypertonic inflammatory cell model, RT-PCR of inflammation-related cytokine mRNA. Type of data set: cell-based. The settings on record: Ps<0.01. As to the method:
Primary human cell culture: the remaining limbus of the donor cornea used in a surgery was treated with an ophthalmic instrument into a tissue block carrying corneal stem cells, the tissue block was pasted at the bottom of a cell culture dish, cultured in an SHEM medium, and placed in a cell culture incubator with a temperature of 37° C., CO2 content of 5% and humidity of 90%; primary human corneal epithelial cells crawling out of the limbal stem cells can be seen after 3-5 days; and the cells were grown to a fused state of 70%-90% for an experiment.
Preparation of solution: (1) preparation of hypertonic liquid (500 mOsm): 90 mmol/L NaCl solution was added to a serum-free medium. (2) Preparation of a tested drug solution: 10 mg of the above prepared product was dissolved in 1 mL of 37° C. DMSO solution, prepared into […] mother liquor, and stored in a −20° C. refrigerator for later use; and the mother liquor was diluted with a serum-free medium to prepare drug solutions having final concentrations of 1 μmol/L and 10 μmol/L for an experiment. […]
(§1) Real-time PCR (RT-PCR): mRNA expressions of different groups of IL-6, IL-1β, IL-17A, IL-18, TNF-α, and NLRP3 were detected using RT-PCR. […] RNA was extracted from the cells according to an instruction of an RNA extraction kit, and a total amount of RNAs required to synthesize a cDNA template was calculated based on a measured concentration. cDNA was synthesized by an M-MLV reverse transcription kit, and the cDNA obtained by reverse transcription was stored at −20° C. for subsequent PCR amplification. […]
(§2) A SYBR Green fluorescent dye method was used for RT-PCR detection. A relatively quantified mRNA expression quantity of a target gene was calculated. […]
Real-time PCR (RT-PCR): mRNA expressions of different groups of IL-6, IL-1β, IL-17A, IL-18, TNF-α, and NLRP3 were detected using RT-PCR. […]

The subject of data set [5] is SV40 corneal epithelial cells. The data set is described as above. Type of data set: cell-based, human. The settings on record: hypertonic model 500 mOsm, four hours of administration, vs. HS group, Ps<0.01. As to the method: SV40 cell culture: SV40 cells were cultured in a DMEM/F12 medium containing 10% fetal bovine serum, and added with insulin and a human epidermal growth factor at the same time, so that a final concentration of insulin in the medium was 5 μg/mL and a final concentration of the human epidermal growth factor was 10 ng/mL. The medium was routinely subcultured in a cell culture incubator with a temperature of 37° C., CO2 content of 5% and a humidity of 90%. The cells were grown to a fused state of 70%-90% for an experiment.
Preparation of solution: (1) preparation of hypertonic liquid (500 mOsm): 90 mmol/L NaCl solution was added to a serum-free medium. […]
as §1, §2

Consider `COc1ccc2cc3[n+](cc2c1OC)CCc1cc2c(cc1-3)OCO2` [Berberine base], for which the “Weight gain percentage of Day 5 (%)” value in data set [1] is 4.2%. In addition, in data set [1], the “Weight gain percentage of Day 10 (%)” value is 6.7%. Moreover, the “Concentration in solvent” value in data set [2] stood at 24450 ng/mL. Also, the “C” value in data set [3] (0:00) came to 24.45 µg/mL; in data set [3] (40° C. (in dark place), 8:00) it was 22.62 µg/mL; in data set [3] (40° C. (in dark place), Day 5), 22.41 µg/mL; in data set [3] (40° C. (in dark place), Day 10), 10.35 µg/mL; in data set [3] (60° C. (in dark place), 8:00) it was 22.45 µg/mL; in data set [3] (60° C. (in dark place), Day 5) it was 21.31 µg/mL. Further, the “C” value in data set [3] (60° C. (in dark place), Day 10) stood at 9.68 µg/mL; in data set [3] (Illumination, 8:00) it was 21.84 µg/mL; in data set [3] (Illumination, Day 5), 14.70 µg/mL; in data set [3] (Illumination, Day 10), 7.02 µg/mL. Also, the Purity in data set [3] (0:00) is reported as 97.35%; in data set [3] (40° C. (in dark place), 8:00), 97.17%; in data set [3] (40° C. (in dark place), Day 5), 97.02%; in data set [3] (40° C. (in dark place), Day 10), 96.86%; in data set [3] (60° C. (in dark place), 8:00), 97.17%; in data set [3] (60° C. (in dark place), Day 5) it was 96.96%. Further, the Purity turned out to be 95.99% in data set [3] (60° C. (in dark place), Day 10); 97.62% in data set [3] (Illumination, 8:00); 88.52% in data set [3] (Illumination, Day 5); 74.89% in data set [3] (Illumination, Day 10).
On to `CC(C)(O)c1ccccc1CC[C@@H](SCC1(CC(=O)[O-])CC1)c1cccc(/C=C/c2ccc3ccc(Cl)cc3n2)c1.COc1ccc2cc3[n+](cc2c1OC)CCc1cc2c(cc1-3)OCO2` [Montelukast berberine double salt, (R,E)-2-(1-(((1-(3-(2-(7-chloroquinoline-2-yl)vinyl)phenyl)-3-(2-(2-hydroxypropyl-2-yl)phenyl)propyl)thio)methyl)cyclopropyl)acetic acid and 9,10-dimethoxy-5,6-dihydro-[1,3]dioxocyclo [4,5-g]isoquino[3,2-a]isoquinolin-7-onium conjugate], for which the “inflammation-related cytokines (mRNA expression)” value in data set [4] (0.5 μmol/L, compared with single drug of berberine and montelukast of the same concentration) is “significantly reduce”; in data set [4] (1 μmol/L, hypertonic model 500 mOsm, four hours of administration, vs. HS group) it was “significantly reduce”; in data set [4] (10 μmol/L, hypertonic model 500 mOsm, four hours of administration, vs. HS group), “significantly reduce”; in data set [5] (1 μmol/L), “significantly reduce”; in data set [5] (10 μmol/L), “significantly reduce”. The “Weight gain percentage of Day 5 (%)” value in data set [1] amounted to 3.3%. Also, the “Weight gain percentage of Day 10 (%)” value in data set [1] amounted to 4.9%.
Consider `CC(C)(O)c1ccccc1CC[C@@H](SCC1(CC(=O)O)CC1)c1cccc(/C=C/c2ccc3ccc(Cl)cc3n2)c1` [Montelukast], for which, in data set [1], the “Weight gain percentage of Day 5 (%)” value was found to be 4.5% and the “Weight gain percentage of Day 10 (%)” value is reported as 5.3%.

For the origin of these results see patent US12221418B2 (EYE HOSPITAL, WENZHOU MEDICAL UNIVERSITY, priority 2021, dated 2025).
